Measurements reported in PubChem BioAssay AID1963986 (Molecular Pharmacology Branch, DTP, NCI, 2024).

System: 171881-019-R-J1-PDC tumor spheroid viability
Assay: Anticancer human tumor 171881-019-R-J1-PDC patient-derived invasive breast carcinoma cell line growth inhibition [PI3K]
Conditions: spheroids with HUVEC and MSC; for IC50: curve of first compound; for viability, T/C: stronger effect = lower value; active = viability on the fitted dose curve at most 10% of control; inactive = the rest
Outline: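 High-throughput combination screen: PI3K inhibitors crossed with targeted small molecules on complex spheroids of tumor cells, HUVEC and MSCs at 37 degrees C, 5% CO2. Top concentration was at or near clinical Cmax (otherwise 10 microM), with half-log decrements.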

[1] = second compound 0.0316 µM, first compound 0.0316 µM
[2] = second compound 0.0316 µM, first compound 0.1 µM
[3] = second compound 0.0316 µM, first compound 0.316 µM
[4] = second compound 0.0316 µM, first compound 1 µM
[5] = second compound 0.0316 µM, first compound 3.16 µM
[6] = second compound 0.0316 µM, first compound 10 µM
[7] = second compound 0.1 µM, first compound 0.0316 µM
[8] = second compound 0.1 µM, first compound 0.1 µM
[9] = second compound 0.1 µM, first compound 0.316 µM
[10] = second compound 0.1 µM, first compound 1 µM
[11] = second compound 0.1 µM, first compound 3.16 µM
[12] = second compound 0.1 µM, first compound 10 µM
[13] = second compound 0.316 µM, first compound 0.0316 µM
[14] = second compound 0.316 µM, first compound 0.1 µM
[15] = second compound 0.316 µM, first compound 0.316 µM
[16] = second compound 0.316 µM, first compound 1 µM
[17] = second compound 0.316 µM, first compound 3.16 µM
[18] = second compound 0.316 µM, first compound 10 µM
[19] = second compound 1 µM, first compound 0.0316 µM
[20] = second compound 1 µM, first compound 0.1 µM
[21] = second compound 1 µM, first compound 0.316 µM
[22] = second compound 1 µM, first compound 1 µM
[23] = second compound 1 µM, first compound 3.16 µM
[24] = second compound 1 µM, first compound 10 µM
[25] = second compound 3.16 µM, first compound 0.0316 µM
[26] = second compound 3.16 µM, first compound 0.1 µM
[27] = second compound 3.16 µM, first compound 0.316 µM
[28] = second compound 3.16 µM, first compound 1 µM
[29] = second compound 3.16 µM, first compound 3.16 µM
[30] = second compound 3.16 µM, first compound 10 µM
[31] = second compound 10 µM, first compound 0.0316 µM
[32] = second compound 10 µM, first compound 0.1 µM
[33] = second compound 10 µM, first compound 0.316 µM
[34] = second compound 10 µM, first compound 1 µM
[35] = second compound 10 µM, first compound 3.16 µM
[36] = second compound 10 µM, first compound 10 µM
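Note: spheroids exposed to compound for 7 days before viability read.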
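Throughout, for viability, T/C: 100% = DMSO vehicle-treated spheroids.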

CC1(C)CCC(CN2CCN(c3ccc(C(=O)NS(=O)(=O)c4ccc(NCC5CCOCC5)c([N+](=O)[O-])c4)c(Oc4cnc5[nH]ccc5c4)c3)CC2)=C(c2ccc(Cl)cc2)C1 + Cc1nc(NC(=O)N2CCCC2C(N)=O)sc1-c1ccnc(C(C)(C)C(F)(F)F)c1
1530 nM: IC50 (second compound 0.316 µM)
active: viability, T/C [31] 3.36% | viability, T/C [32] 3.47% | viability, T/C [33] 3.28% | viability, T/C [34] 3.12% | viability, T/C [35] 3.52% | viability, T/C [36] 2.22%
< 31.6 nM: IC50 (second compound 1 µM) | IC50 (second compound 3.16 µM) | IC50 (second compound 10 µM)
3840 nM: IC50 (second compound 0.0316 µM)
3340 nM: IC50 (second compound 0.1 µM)
inactive: viability, T/C [1] 102% | viability, T/C [2] 86.9% | viability, T/C [3] 90.8% | viability, T/C [4] 81.5% | viability, T/C [5] 56.6% | viability, T/C [6] 13.9% | viability, T/C [7] 94.3% | viability, T/C [8] 70.6% | viability, T/C [9] 75.5% | viability, T/C [10] 73.7% | viability, T/C [11] 52% | viability, T/C [12] 13.1% | viability, T/C [13] 54.8% | viability, T/C [14] 52.6% | viability, T/C [15] 56.1% | viability, T/C [16] 57.6% | viability, T/C [17] 41% | viability, T/C [18] 10.3% | viability, T/C [19] 33.8% | viability, T/C [20] 34.3% | viability, T/C [21] 33.6% | viability, T/C [22] 33.4% | viability, T/C [23] 31.6% | viability, T/C [24] 8.49% | viability, T/C [25] 13.2% | viability, T/C [26] 14.2% | viability, T/C [27] 12.7% | viability, T/C [28] 14.6% | viability, T/C [29] 15.9% | viability, T/C [30] 5.35%

Cn1cnc2c(F)c(Nc3ccc(Br)cc3Cl)c(C(=O)NOCCO)cc21 + COc1c(OCCCN2CCOCC2)ccc2c3n(c(=NC(=O)c4cnc(N)nc4)nc12)CCN3
active: viability, T/C (second compound 0.00316 µM, first compound 3 µM) 9.21% | viability, T/C (second compound 0.01 µM, first compound 3 µM) 4.9% | viability, T/C (second compound 0.0316 µM, first compound 0.949 µM) 6.05% | viability, T/C (second compound 0.0316 µM, first compound 3 µM) 1.88% | viability, T/C (second compound 0.1 µM, first compound 0.00949 µM) 6.77% | viability, T/C (second compound 0.1 µM, first compound 0.03 µM) 5.8% | viability, T/C (second compound 0.1 µM, first compound 0.0949 µM) 4.51% | viability, T/C (second compound 0.1 µM, first compound 0.3 µM) 2.81% | viability, T/C (second compound 0.1 µM, first compound 0.949 µM) 1.28% | viability, T/C (second compound 0.1 µM, first compound 3 µM) 0.8% | viability, T/C (second compound 0.316 µM, first compound 0.00949 µM) 1.87% | viability, T/C (second compound 0.316 µM, first compound 0.03 µM) 2.04% | viability, T/C (second compound 0.316 µM, first compound 0.0949 µM) 1.3% | viability, T/C (second compound 0.316 µM, first compound 0.3 µM) 0.68% | viability, T/C (second compound 0.316 µM, first compound 0.949 µM) 0.42% | viability, T/C (second compound 0.316 µM, first compound 3 µM) 0.28% | viability, T/C (second compound 1 µM, first compound 0.00949 µM) 0.82% | viability, T/C (second compound 1 µM, first compound 0.03 µM) 1.37% | viability, T/C (second compound 1 µM, first compound 0.0949 µM) 0.93% | viability, T/C (second compound 1 µM, first compound 0.3 µM) 1.07% | viability, T/C (second compound 1 µM, first compound 0.949 µM) 0.79% | viability, T/C (second compound 1 µM, first compound 3 µM) 0.56%
< 9.49 nM: IC50 (second compound 0.01 µM) | IC50 (second compound 0.0316 µM) | IC50 (second compound 0.1 µM) | IC50 (second compound 0.316 µM) | IC50 (second compound 1 µM)
inactive: viability, T/C (second compound 0.00316 µM, first compound 0.00949 µM) 55.7% | viability, T/C (second compound 0.00316 µM, first compound 0.03 µM) 59.1% | viability, T/C (second compound 0.00316 µM, first compound 0.0949 µM) 43.1% | viability, T/C (second compound 0.00316 µM, first compound 0.3 µM) 37.1% | viability, T/C (second compound 0.00316 µM, first compound 0.949 µM) 21.8% | viability, T/C (second compound 0.01 µM, first compound 0.00949 µM) 39.5% | viability, T/C (second compound 0.01 µM, first compound 0.03 µM) 39.4% | viability, T/C (second compound 0.01 µM, first compound 0.0949 µM) 31.9% | viability, T/C (second compound 0.01 µM, first compound 0.3 µM) 24.2% | viability, T/C (second compound 0.01 µM, first compound 0.949 µM) 14% | viability, T/C (second compound 0.0316 µM, first compound 0.00949 µM) 20.8% | viability, T/C (second compound 0.0316 µM, first compound 0.03 µM) 18.8% | viability, T/C (second compound 0.0316 µM, first compound 0.0949 µM) 16.9% | viability, T/C (second compound 0.0316 µM, first compound 0.3 µM) 10.5%
59 nM: IC50 (second compound 0.00316 µM)

Cn1ncc(Cl)c1-c1cc(C(=O)NC(CN)Cc2cccc(F)c2)sc1Cl (stereo unspecified) + Cc1nc(NC(=O)N2CCCC2C(N)=O)sc1-c1ccnc(C(C)(C)C(F)(F)F)c1
32.9 nM: IC50 (second compound 0.316 µM)
active: viability, T/C [6] 4.55% | viability, T/C [12] 4.51% | viability, T/C [17] 9.51% | viability, T/C [18] 4.96% | viability, T/C [23] 8.96% | viability, T/C [24] 3.93% | viability, T/C [28] 8.81% | viability, T/C [29] 6.34% | viability, T/C [30] 1.66% | viability, T/C [31] 3.8% | viability, T/C [32] 3.93% | viability, T/C [33] 3.32% | viability, T/C [34] 2.79% | viability, T/C [35] 1.39% | viability, T/C [36] 0.18%
inactive: viability, T/C [1] 77.8% | viability, T/C [2] 60% | viability, T/C [3] 34.2% | viability, T/C [4] 20.2% | viability, T/C [5] 11.4% | viability, T/C [7] 71.3% | viability, T/C [8] 47.4% | viability, T/C [9] 31.6% | viability, T/C [10] 17.6% | viability, T/C [11] 11.4% | viability, T/C [13] 50.1% | viability, T/C [14] 42.2% | viability, T/C [15] 28.9% | viability, T/C [16] 16.3% | viability, T/C [19] 32.2% | viability, T/C [20] 29.3% | viability, T/C [21] 19.2% | viability, T/C [22] 12.7% | viability, T/C [25] 13.7% | viability, T/C [26] 13.4% | viability, T/C [27] 11.3%
90.7 nM: IC50 (second compound 0.1 µM)
< 31.6 nM: IC50 (second compound 1 µM) | IC50 (second compound 3.16 µM) | IC50 (second compound 10 µM)
155 nM: IC50 (second compound 0.0316 µM)
